Here are results for 4 compounds from patent publication US4511573A, “3-Substituted-2-(heteroaryl) indoles” (Ciba-Geigy Corporation, priority 1983, dated 1985).

In one experiment the test system is platelet aggregation. Kind of experiment: inhibition of variously induced platelet aggregation. Type of experiment: cell-based.
For experiment [1], the target named is T1, prostaglandin cyclooxygenase (Ovis aries, UniProt P05979).
T1 construct: Lyophilized sheep seminal vesicle microsomes are utilized as the prostaglandin-synthesizing enzyme preparation; from tissue; host or cells: sheep seminal vesicle microsomes (lyophilized)
T1 sequence (P05979 25-600): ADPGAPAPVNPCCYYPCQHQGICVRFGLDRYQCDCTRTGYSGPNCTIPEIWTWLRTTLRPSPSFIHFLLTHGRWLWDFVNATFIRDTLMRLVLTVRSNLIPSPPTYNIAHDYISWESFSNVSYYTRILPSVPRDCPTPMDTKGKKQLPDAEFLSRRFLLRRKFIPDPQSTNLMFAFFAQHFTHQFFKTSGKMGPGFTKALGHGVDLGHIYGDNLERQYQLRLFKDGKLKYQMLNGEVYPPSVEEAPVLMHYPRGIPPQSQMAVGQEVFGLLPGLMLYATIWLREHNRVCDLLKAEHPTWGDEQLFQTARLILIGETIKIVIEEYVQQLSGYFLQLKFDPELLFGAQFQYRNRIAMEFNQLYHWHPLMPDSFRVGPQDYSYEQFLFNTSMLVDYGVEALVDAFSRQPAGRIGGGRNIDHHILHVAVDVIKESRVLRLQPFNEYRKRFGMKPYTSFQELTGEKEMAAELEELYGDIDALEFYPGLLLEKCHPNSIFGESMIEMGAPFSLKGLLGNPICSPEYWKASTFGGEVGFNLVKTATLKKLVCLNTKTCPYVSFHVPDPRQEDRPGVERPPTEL
Kind of experiment: in vitro effect on prostaglandin cyclooxygenase (14C-arachidonic acid to PGE2). The following applies: read-out: IC50 for inhibition of cyclooxygenase. In kind it is biochemical, sheep. As for the experimental part: The in-vitro effect on prostaglandin cyclooxygenase is measured by a modification of the method of Takeguchi et al. described in Biochemistry 10, 2372 (1971); the testing procedure is as follows: Lyophilized sheep seminal vesicle microsomes are utilized as the prostaglandin-synthesizing enzyme preparation. The conversion of ^14 C-arachidonic acid to PGE2 is measured. Test compounds (dissolved in buffer, or if necessary, in a small amount of ethanol) are added to the incubation mixture. The prostaglandins are extracted and separated by thin-layer chromatography; the plates are scanned, the radioactive zones corresponding to PGE2 are transferred to liquid scintillation vials and counted for radioactivity. IC50 values for inhibition are determined graphically as the concentration of test compound causing a 50% reduction in the amount of PGE2 synthesized.

Experiment [2] has as its target T2, prostacyclin (PGI2) synthetase (Bos taurus, UniProt Q29626).
T2 construct: crude PGI2 synthetase in the form of a microsomal fraction of bovine aorta; from tissue; host or cells: bovine aorta (microsomal fraction)
T2 sequence (Q29626 1-500): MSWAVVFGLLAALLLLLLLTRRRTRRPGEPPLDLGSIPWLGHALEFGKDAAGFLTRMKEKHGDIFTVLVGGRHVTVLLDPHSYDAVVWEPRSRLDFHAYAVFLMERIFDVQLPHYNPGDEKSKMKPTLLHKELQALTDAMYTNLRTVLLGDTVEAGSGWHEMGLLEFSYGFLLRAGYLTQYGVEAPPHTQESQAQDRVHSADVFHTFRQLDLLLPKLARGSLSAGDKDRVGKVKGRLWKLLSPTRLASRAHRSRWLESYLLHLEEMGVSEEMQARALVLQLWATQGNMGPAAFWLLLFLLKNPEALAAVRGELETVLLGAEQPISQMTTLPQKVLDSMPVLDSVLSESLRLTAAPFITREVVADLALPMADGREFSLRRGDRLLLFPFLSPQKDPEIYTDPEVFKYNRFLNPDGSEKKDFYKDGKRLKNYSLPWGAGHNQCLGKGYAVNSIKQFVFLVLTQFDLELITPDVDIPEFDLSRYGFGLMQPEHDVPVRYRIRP
The experiment is described as follows: in vitro effect on prostacyclin (PGI2) synthetase (6-keto-PGF1α/PGE2 ratio). Type of experiment: biochemical, bovine. The note with it: pH 7.5, 30 minutes at 37° C., read-out: IC50 for inhibition of prostacyclin synthetase. As to the method:
The in-vitro effect on prostacyclin (PGI2) synthetase is measured analogous to the method of Sun et al., Prostaglandins 14, 1055 (1977);
The testing procedure is as follows:
^14 C-Arachiodonic acid is incubated with an enzyme mixture consisting of solubilized and partially purified prostaglandin cyclo-oxygenase from sheep seminal vesicles and crude PGI2 synthetase in the form of a microsomal fraction of bovine aorta.
Test compound (dissolved in buffer, or if necessary, in a small amount of ethanol) is placed in the incubation medium. The reaction mixture is incubated in 100 mM Tris HCl (pH 7.5) for 30 minutes at 37° C., acidified to pH 3 and extracted into ethyl acetate. The extract is evaporated to dryness; the residue is dissolved in acetone, spotted on thin-layer plates and chromatographed in a solvent system described by Sun et al.. The radioactive zones are located with a scanner; those corresponding to 6-keto-PGF1 α(a stable end product of prostacyclin biotransformation) and PGE2 are transferred to liquid scintillation vials and counted. The ratio of counts for 6-keto-PGF1 α/PGE2 is calculated for each concentration of test compound used. IC50 values for inhibition are determined graphically as the concentration of test compound at which the ratio of 6-keto-PGF1 α/PGE2 is reduced to 50% of the control value.

For the next experiment, the system named is thrombocytopenia. Kind of experiment: inhibition of variously induced thrombocytopenia. The note with it: in vivo.
For another experiment, the target named is T3, thromboxane synthetase (Homo sapiens, UniProt P24557).
T3 construct: crude microsomal preparation of thromboxane synthetase from lysed human platelets; from tissue; host or cells: human platelets (lysed, crude microsomal preparation)
T3 sequence (P24557 1-533): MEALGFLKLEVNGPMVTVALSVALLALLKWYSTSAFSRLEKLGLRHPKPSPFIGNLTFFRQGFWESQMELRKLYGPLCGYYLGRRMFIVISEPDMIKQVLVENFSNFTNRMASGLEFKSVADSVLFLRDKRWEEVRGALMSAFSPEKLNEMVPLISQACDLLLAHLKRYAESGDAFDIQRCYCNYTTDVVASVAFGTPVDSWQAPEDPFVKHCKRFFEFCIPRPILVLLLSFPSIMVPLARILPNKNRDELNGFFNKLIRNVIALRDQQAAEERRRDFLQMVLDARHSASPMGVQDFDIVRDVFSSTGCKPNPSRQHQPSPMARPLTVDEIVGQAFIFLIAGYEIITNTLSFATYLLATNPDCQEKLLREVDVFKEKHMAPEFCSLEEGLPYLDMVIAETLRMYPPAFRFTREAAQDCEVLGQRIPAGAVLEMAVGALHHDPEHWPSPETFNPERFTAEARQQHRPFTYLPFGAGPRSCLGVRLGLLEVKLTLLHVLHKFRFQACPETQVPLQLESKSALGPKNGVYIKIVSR
Kind of experiment: in vitro inhibition of thromboxane synthetase (14C-arachidonic acid, TxB2/PGF2α+β ratio). In kind it is biochemical. The note with it: 30 minutes incubation. As for the experimental part: Res. Comm. 74, 1432 (1977); the testing procedure is as follows:
^14 C-Arachiodonic acid is incubated with an exzyme consisting of solubilized and partially purified prostaglandin cyclo-oxygenase from sheep seminal vesicles and a crude microsomal preparation of thromboxane synthetase from lysed human platelets. The test compound (dissolved in buffer, or if necessary, in a small amount of ethanol) is added to the incubation medium. At the end of the incubation period (30 minutes), Prostaglandin E2 (PGE2) is reduced to a mixture of Prostaglandin F2 α and F2 β (PGF2α+β) by addition of sodium borohydride. The radioactive products and excess substrate are extracted into ethyl acetate; the extract is evaporated to dryness; the residue is dissolved in acetone, spotted on thin-layer plates and chromatographed in the solvent system toluene: acetone: glacial acetic acid (100 volumes: 100 volumes: 3 volumes). The radioactive zones are located; those corresponding to Thromboxane B2 (TxB2) and PGF2 α+β are transferred to liquid scintillation vials and counted. The ratio of counts for TxB2 /PGF2 α+β is calculated for each concentration of test compound and IC50 values are determined graphically as the concentration of test compound at which the ratio of T×B2 /[…] is reduced to 50% of the control value.

The subject of a further experiment is bleeding time. The experiment is described as follows: prolongation of bleeding time in the rat. In kind it is in vivo. The following applies: oral, about 10 mg/kg. From the text: Experimentally, prolongation of bleeding time in the rat is indicative of a beneficial antithrombotic effect.
The test system of the next experiment is thromboxane B2. Kind of experiment: reduction of plasma levels of thromboxane in vivo in rats (ionophore A23187, radioimmunoassay of thromboxane B2). The following applies: rat, oral dose 0.10 mg/kg. As for the experimental part:
(§1) The inhibition of the synthesis and the reduction of plasma levels of thromboxane is determined in vivo on administration to rats in the following manner (as adapted from the procedures described by Tai et al. in Anal. Biochem. 87:343, 1978 and by Salmon in Prostaglandins 15:383, 1978):
(§2) Rats are dosed with vehicle or test drug and injected intravenously with ionophore A23187 (0.5 mg/kg) two hours later. Blood is collected for analysis 2 minutes after the inonophore injection. A single aliquot of each plasma sample is assayed for thromboxane B2 and another aliquot for 6-keto-PGF1 α, the stable metabolites of thromboxane A2 and prostacyclin (PGI2) respectively, by radioimmunoassay.

The subject of another experiment is prostacyclin. The experiment is described as follows: plasma level of prostacyclin in vivo in rats (ionophore A23187, radioimmunoassay of 6-keto-PGF1α). The following applies: rat, oral dose 0.10 mg/kg. As for the experimental part:
as §1, §2

Take `Cn1c(-c2cccnc2)c(CCCCCC(=O)O)c2ccccc21` [3-(5-carboxypentyl)-1-methyl-2-(3-pyridyl)indole]: the “inhibition of variously induced platelet aggregation” value in the experiment on platelet aggregation is reported as “inhibits”. In addition, the IC50 in experiment [1] is roughly 100000 nM; in experiment [2] it was roughly 100000 nM; on thromboxane synthetase, 2.2 nM. The “inhibition of variously induced thrombocytopenia” value with thrombocytopenia is “inhibits”.

As for `O=C(O)CCCCCc1c(-c2cccnc2)[nH]c2ccccc12` [3-(5-carboxypentyl)-2-(3-pyridyl)indole], the “prolongation of bleeding time” value in the experiment on bleeding time was “prolongs bleeding time”. Further, on thromboxane synthetase, the IC50 is roughly 1.7 nM.

For `Cn1c(-c2cccnc2)c(CCCCCC(=O)O)c2cc(Cl)ccc21` [3-(5-carboxypentyl)-5-chloro-1-methyl-2-(3-pyridyl)indole], the “decrease of plasma concentration of thromboxane B2” value with thromboxane B2 is “over 50%”. Further, in the experiment with prostacyclin, the “increase in the plasma level of prostacyclin” value was “approximately 8 fold”.

Turning to `O=C(O)CCCCCc1c(-c2cccnc2)[nH]c2ccc(Cl)cc12` [3-(5-carboxypentyl)-5-chloro-2-(3-pyridyl)indole], at thromboxane synthetase, the IC50 is roughly 2 nM.

What is called IC50 is the concentration that inhibits the measured activity by half.
